This note sets out measurements from patent US20250262201A1, “COMPOUNDS AND METHODS USEFUL FOR STABILIZING PHENYLALANINE HYDROXYLASE MUTATIONS” (Agios Pharmaceuticals, Inc., priority 2022, published 2025).

As usually defined, the AC50 is the concentration giving half of the maximal activity seen.

In this assay the target is T1, human PAH with the R408W mutation (Homo sapiens, UniProt P00439, R408W).
T1 construct: expressed in transfected cells
T1 sequence (P00439 1-452 R408W): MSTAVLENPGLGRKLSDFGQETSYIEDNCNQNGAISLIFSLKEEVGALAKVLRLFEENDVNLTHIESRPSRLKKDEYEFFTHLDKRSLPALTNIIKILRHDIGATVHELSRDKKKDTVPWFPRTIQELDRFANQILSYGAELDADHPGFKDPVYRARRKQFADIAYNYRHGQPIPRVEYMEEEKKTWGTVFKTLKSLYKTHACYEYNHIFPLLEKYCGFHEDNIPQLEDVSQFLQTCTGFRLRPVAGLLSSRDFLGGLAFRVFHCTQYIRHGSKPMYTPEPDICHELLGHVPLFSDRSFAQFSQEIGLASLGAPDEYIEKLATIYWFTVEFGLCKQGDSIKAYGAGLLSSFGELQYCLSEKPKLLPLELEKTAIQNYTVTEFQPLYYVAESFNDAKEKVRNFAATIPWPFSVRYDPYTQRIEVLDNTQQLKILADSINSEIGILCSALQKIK
Description: Cell Based Phenylalanine Flux Assay. To be noted: A375 cells expressing human R408W PAH; 24 hrs compound incubation; 13C-Tyrosine by LC-MS; average where tested multiple times; read-out: AC50.
In the case of `O=C(c1cnc(-c2ccccn2)s1)N1CCc2[nH]cnc2C1c1ccc2ccccc2n1` (stereo in doubt) [Example 1, (R)-(2-(pyridin-2-yl)thiazol-5-yl)(4-(quinolin-2-yl)-6,7-dihydro-1H-imidazo[4,5-c]pyridin-5(4H)-yl)methanone], the AC50 is < 500 nM. Under `O=C(c1cnc(-c2ccccn2)s1)N1CCc2[nH]cnc2C1c1ccc2ccccc2n1` (stereo in doubt) [Example 2, (S)-(2-(pyridin-2-yl)thiazol-5-yl)(4-(quinolin-2-yl)-6,7-dihydro-1H-imidazo[4,5-c]pyridin-5(4H)-yl)methanone] stands 1000 to 5000 nM. Regarding `CC(C)(C)c1ncc(C(=O)N2CCc3[nH]cnc3C2c2ccc3ccccc3n2)s1` (stereo in doubt) [Example 3, (R)-(2-(tert-butyl)thiazol-5-yl)(4-(quinolin-2-yl)-6,7-dihydro-1H-imidazo[4,5-c]pyridin-5(4H)-yl)methanone], the AC50 was < 500 nM. `CC(C)(C)c1ncc(C(=O)N2CCc3[nH]cnc3C2c2ccc3ccccc3n2)s1` (stereo in doubt) [Example 4, (S)-(2-(tert-butyl)thiazol-5-yl)(4-(quinolin-2-yl)-6,7-dihydro-1H-imidazo[4,5-c]pyridin-5(4H)-yl)methanone]: the half-maximal activity concentration (AC50) was > 5000 nM. Under `O=C(c1cncs1)N1CCc2[nH]cnc2C1c1ccc2ccccc2n1` (stereo in doubt) [Example 5, (R)-(4-(quinolin-2-yl)-6,7-dihydro-1H-imidazo[4,5-c]pyridin-5(4H)-yl)(thiazol-5-yl)methanone] stands 500 to 1000 nM; under `O=C(c1cncs1)N1CCc2[nH]cnc2C1c1ccc2ccccc2n1` (stereo in doubt) [Example 6, (S)-(4-(quinolin-2-yl)-6,7-dihydro-1H-imidazo[4,5-c]pyridin-5(4H)-yl)(thiazol-5-yl)methanone], > 5000 nM. As for `Cc1nc(C(C)(C)C)oc1C(=O)N1CCc2[nH]cnc2C1c1ccc2ccccc2n1` (stereo in doubt) [Example 7, (R)-(2-(tert-butyl)-4-methyloxazol-5-yl)(4-(quinolin-2-yl)-6,7-dihydro-1H-imidazo[4,5-c]pyridin-5(4H)-yl)methanone], the figure is 500 to 1000 nM; as for `O=C(c1nnc(C2CC2)o1)N1CCc2[nH]cnc2C1c1ccc2ccccc2n1` (stereo in doubt) [Example 9, (R)-(5-cyclopropyl-1,3,4-oxadiazol-2-yl)(4-(quinolin-2-yl)-6,7-dihydro-1H-imidazo[4,5-c]pyridin-5(4H)-yl)methanone], 500 to 1000 nM; as for `O=C(c1nnc(C2CC2)o1)N1CCc2[nH]cnc2C1c1ccc2ccccc2n1` (stereo in doubt) [Example 10, (S)-(5-cyclopropyl-1,3,4-oxadiazol-2-yl)(4-(quinolin-2-yl)-6,7-dihydro-1H-imidazo[4,5-c]pyridin-5(4H)-yl)methanone], 1000 to 5000 nM. Turning to `O=C(c1nnc(-c2ccc(F)cc2)o1)N1CCc2[nH]cnc2C1c1ccc2ccccc2n1` (stereo in doubt) [Example 11, (R)-(5-(4-fluorophenyl)-1,3,4-oxadiazol-2-yl)(4-(quinolin-2-yl)-6,7-dihydro-1H-imidazo[4,5-c]pyridin-5(4H)-yl)methanone], the AC50 was < 500 nM.

Take `CC(C)(F)c1ncc(C(=O)N2CCc3[nH]cnc3C2c2ccc3ccccc3n2)s1` (stereo in doubt) [Example 15, (R)-(2-(2-fluoropropan-2-yl)thiazol-5-yl)(4-(quinolin-2-yl)-6,7-dihydro-1H-imidazo[4,5-c]pyridin-5(4H)-yl)methanone]: the half-maximal activity concentration (AC50) is 500 to 1000 nM.

As for `CC(C)(F)c1ncc(C(=O)N2CCc3[nH]cnc3C2c2ccc3ccccc3n2)s1` (stereo in doubt) [Example 16, (S)-(2-(2-fluoropropan-2-yl)thiazol-5-yl)(4-(quinolin-2-yl)-6,7-dihydro-1H-imidazo[4,5-c]pyridin-5(4H)-yl)methanone], the half-maximal activity concentration (AC50) was > 5000 nM. In the case of `CC(C)(F)c1ncc(C(=O)N2CCc3[nH]cnc3C2c2ccc3ccccc3n2)o1` (stereo in doubt) [Example 17, (R)-(2-(2-fluoropropan-2-yl)oxazol-5-yl)(4-(quinolin-2-yl)-6,7-dihydro-1H-imidazo[4,5-c]pyridin-5(4H)-yl)methanone], the AC50 is < 500 nM. As for `Fc1ccc(-c2nnc(N3CCc4[nH]cnc4C3c3ccc4ccccc4n3)o2)cc1` (stereo in doubt) [Example 19, (S)-2-(4-fluorophenyl)-5-(4-(quinolin-2-yl)-6,7-dihydro-1H-imidazo[4,5-c]pyridin-5(4H)-yl)-1,3,4-oxadiazole], the figure is > 5000 nM; as for `Fc1ccc(-c2nnc(N3CCc4[nH]cnc4C3c3ccc4ccccc4n3)o2)cc1` (stereo in doubt) [Example 20, (R)-2-(4-fluorophenyl)-5-(4-(quinolin-2-yl)-6,7-dihydro-1H-imidazo[4,5-c]pyridin-5(4H)-yl)-1,3,4-oxadiazole], 500 to 1000 nM. As for `Cc1nc(C(C)(C)F)oc1C(=O)N1CCc2[nH]cnc2C1c1ccc2ccccc2n1` (stereo in doubt) [Example 21, (S)-(2-(2-fluoropropan-2-yl)-4-methyloxazol-5-yl)(4-(quinolin-2-yl)-6,7-dihydro-1H-imidazo[4,5-c]pyridin-5(4H)-yl)methanone], the half-maximal activity concentration (AC50) was > 5000 nM. For `Cc1nc(C(C)(C)F)oc1C(=O)N1CCc2[nH]cnc2C1c1ccc2ccccc2n1` (stereo in doubt) [Example 22, (R)-(2-(2-fluoropropan-2-yl)-4-methyloxazol-5-yl)(4-(quinolin-2-yl)-6,7-dihydro-1H-imidazo[4,5-c]pyridin-5(4H)-yl)methanone], the half-maximal activity concentration (AC50) is < 500 nM. Under `O=C(c1nnc(-c2c(F)cccc2F)o1)N1CCc2[nH]cnc2C1c1ccc2ccccc2n1` (stereo in doubt) [Example 23, (R)-(5-(2,6-difluorophenyl)-1,3,4-oxadiazol-2-yl)(4-(quinolin-2-yl)-6,7-dihydro-1H-imidazo[4,5-c]pyridin-5(4H)-yl)methanone] stands < 500 nM; under `Cc1nc(-c2cnn(C)c2)oc1C(=O)N1CCc2[nH]cnc2C1c1ccc2ccccc2n1` (stereo in doubt) [Example 25, (S)-(4-methyl-2-(1-methyl-1H-pyrazol-4-yl)oxazol-5-yl)(4-(quinolin-2-yl)-6,7-dihydro-1H-imidazo[4,5-c]pyridin-5(4H)-yl)methanone], > 5000 nM.

In the case of `CC(C)(O)c1nnc(C(=O)N2CCc3[nH]cnc3C2c2ccc3ccccc3n2)o1` (stereo in doubt) [Example 27, (S)-(5-(2-hydroxypropan-2-yl)-1,3,4-oxadiazol-2-yl)(4-(quinolin-2-yl)-6,7-dihydro-1H-imidazo[4,5-c]pyridin-5(4H)-yl)methanone], the AC50 was > 5000 nM. As for `CC(C)(O)c1nnc(C(=O)N2CCc3[nH]cnc3C2c2ccc3ccccc3n2)o1` (stereo in doubt) [Example 28, (R)-(5-(2-hydroxypropan-2-yl)-1,3,4-oxadiazol-2-yl)(4-(quinolin-2-yl)-6,7-dihydro-1H-imidazo[4,5-c]pyridin-5(4H)-yl)methanone], the figure is 1000 to 5000 nM. As to `FC(F)(F)c1cnc(N2CCc3[nH]cnc3C2c2ccc3ccccc3n2)nc1` (stereo in doubt) [Example 29, (R)-2-(5-(5-(trifluoromethyl)pyrimidin-2-yl)-4,5,6,7-tetrahydro-1H-imidazo[4,5-c]pyridin-4-yl)quinoline], the AC50 was < 500 nM. As for `FC(F)(F)c1cnc(N2CCc3[nH]cnc3C2c2ccc3ccccc3n2)nc1` (stereo in doubt) [Example 30, (S)-2-(5-(5-(trifluoromethyl)pyrimidin-2-yl)-4,5,6,7-tetrahydro-1H-imidazo[4,5-c]pyridin-4-yl)quinoline], the AC50 is > 5000 nM.

As for `Cc1nc(-c2ccccn2)oc1C(=O)N1CCc2[nH]cnc2C1c1ccc2ccccc2n1` (stereo in doubt) [Example 31, (R)-(4-methyl-2-(pyridin-2-yl)oxazol-5-yl)(4-(quinolin-2-yl)-6,7-dihydro-1H-imidazo[4,5-c]pyridin-5(4H)-yl)methanone], the AC50 lay within 500 to 1000 nM.

As for `Cc1nc(-c2ccccn2)oc1C(=O)N1CCc2[nH]cnc2C1c1ccc2ccccc2n1` (stereo in doubt) [Example 32, (S)-(4-methyl-2-(pyridin-2-yl)oxazol-5-yl)(4-(quinolin-2-yl)-6,7-dihydro-1H-imidazo[4,5-c]pyridin-5(4H)-yl)methanone], the AC50 is > 5000 nM. On to `O=C(c1nnc(-c2ccc(F)cn2)o1)N1CCc2[nH]cnc2C1c1ccc2ccccc2n1` (stereo in doubt) [Example 33, (R)-(5-(5-fluoropyridin-2-yl)-1,3,4-oxadiazol-2-yl)(4-(quinolin-2-yl)-6,7-dihydro-1H-imidazo[4,5-c]pyridin-5(4H)-yl)methanone], for which the half-maximal activity concentration (AC50) was in the range of 1000 to 5000 nM. As for `O=C(c1nnc(-c2ccc(F)cn2)o1)N1CCc2[nH]cnc2C1c1ccc2ccccc2n1` (stereo in doubt) [Example 34, (S)-(5-(5-fluoropyridin-2-yl)-1,3,4-oxadiazol-2-yl)(4-(quinolin-2-yl)-6,7-dihydro-1H-imidazo[4,5-c]pyridin-5(4H)-yl)methanone], the AC50 is > 5000 nM.

As for `Cc1nc(C2CC2)oc1C(=O)N1CCc2[nH]cnc2C1c1ccc2ccccc2n1` (stereo in doubt) [Example 35, (R)-(2-cyclopropyl-4-methyloxazol-5-yl)(4-(quinolin-2-yl)-6,7-dihydro-1H-imidazo[4,5-c]pyridin-5(4H)-yl)methanone], the AC50 is < 500 nM.
